Where a SMILES comes first, the peptide text is derived from it. [ ]: non-standard residue; d: D form. pGlu = O=C1CC[C@@H](C(=O)O)N1; Thz = O=C(O)[C@@H]1CSCN1
Columns and labels:
[1] = (§1) The drug is tested on Z-026 corresponding to metagenome with ENA study accession number: PRJEB37062 and ENA sample accession number: ERS12561825 for biotransformation under anaerobic condition. The drug concentrations were measured over 9 timepoints collected between 0 and 24 hours of incubation by liquid-chromatography-coupled mass spectrometry (LC–MS); settings: 2 µM
[2] = (§2) The drug is tested on Z-024 corresponding to pig gut metagenome with ENA study accession number: PRJEB37062 and ENA sample accession number: ERS12561823 for biotransformation under anaerobic condition. The drug concentrations were measured over 9 timepoints collected between 0 and 24 hours of incubation by liquid-chromatography-coupled mass spectrometry (LC–MS); settings: 2 µM
[3] = as §2, with “Z-020” for “Z-024”, “rabbit” for “pig”, “ERS12561819” for “ERS12561823”; settings: 2 µM
[4] = as §2, with “Z-011” for “Z-024”, “mouse” for “pig”, “ERS12561811” for “ERS12561823”; settings: 2 µM
[5] = as §1, with “Z-010” for “Z-026”, “ERS12561810” for “ERS12561825”; settings: 2 µM
[6] = as §1, with “Z-005” for “Z-026”, “ERS12561805” for “ERS12561825”; settings: 2 µM
[7] = as §2, with “WLS-310” for “Z-024”, “human” for “pig”, “ERS12561785” for “ERS12561823”; settings: 2 µM
[8] = as §2, with “WLS-220” for “Z-024”, “human” for “pig”, “ERS12561769” for “ERS12561823”; settings: 2 µM
[9] = as §2, with “WLS-069” for “Z-024”, “human” for “pig”, “ERS12561748” for “ERS12561823”; settings: 2 µM
[10] = as §2, with “WLS-052” for “Z-024”, “human” for “pig”, “ERS12561747” for “ERS12561823”; settings: 2 µM
[11] = as §2, with “WLS-039” for “Z-024”, “human” for “pig”, “ERS12561746” for “ERS12561823”; settings: 2 µM
[12] = as §2, with “WLS-027” for “Z-024”, “human” for “pig”, “ERS12561744” for “ERS12561823”; settings: 2 µM
[13] = human gut metagenome, 24 h, 2 µM
[14] = human gut metagenome, 24 h, 2 µM; remark: listed apart in the source
[15] = human gut metagenome, 24 h, 2 µM; remark: listed apart in the source
[16] = human gut metagenome, 24 h, 2 µM; remark: listed apart in the source
[17] = human gut metagenome, 24 h, 2 µM; remark: listed apart in the source
[18] = human gut metagenome, 24 h, 2 µM; remark: listed apart in the source
[19] = as §2, with “WLS-090” for “Z-024”, “human” for “pig”, “ERS12561753” for “ERS12561823”; settings: 2 µM
[20] = as §2, with “WLS-082” for “Z-024”, “human” for “pig”, “ERS12561751” for “ERS12561823”; settings: 2 µM
Further: call rule not given here.

SMILES	Bacterial Biotransformation [1]	Bacterial Biotransformation [2]	Bacterial Biotransformation [3]	Bacterial Biotransformation [4]	Bacterial Biotransformation [5]	Bacterial Biotransformation [6]	Bacterial Biotransformation [7]	Bacterial Biotransformation [8]	Bacterial Biotransformation [9]	Bacterial Biotransformation [10]	Bacterial Biotransformation [11]	Bacterial Biotransformation [12]	Bacterial Biotransformation [13]	Bacterial Biotransformation [14]	Bacterial Biotransformation [15]	Bacterial Biotransformation [16]	Bacterial Biotransformation [17]	Bacterial Biotransformation [18]	Bacterial Biotransformation [19]	Bacterial Biotransformation [20]
C[C@@H]1C[C@H]2[C@@H]3CCC4=CC(=O)C=C[C@]4(C)[C@@]3(F)[C@@H](O)C[C@]2(C)[C@@]1(O)C(=O)CO [DEXAMETHASONE]	Compound NOT metabolized	Compound metabolized	Compound metabolized	Compound NOT metabolized	Compound NOT metabolized	Compound metabolized	Compound metabolized	Compound NOT metabolized	Compound NOT metabolized	Compound NOT metabolized	Compound NOT metabolized	Compound NOT metabolized	Compound NOT metabolized	Compound NOT metabolized	Compound NOT metabolized	Compound NOT metabolized	Compound NOT metabolized	Compound NOT metabolized	–	–
COc1ccc(CCN(C)CCCC(C#N)(c2ccc(OC)c(OC)c2)C(C)C)cc1OC (stereo not drawn)	Compound NOT metabolized	Compound metabolized	Compound metabolized	Compound NOT metabolized	–	Compound metabolized	Compound metabolized	Compound metabolized	Compound metabolized	Compound NOT metabolized	Compound metabolized	Compound metabolized	Compound metabolized	Compound metabolized	Compound metabolized	Compound NOT metabolized	Compound NOT metabolized	Compound metabolized	Compound metabolized	Compound metabolized
C#C[C@]1(O)CC[C@H]2[C@@H]3CCC4=CC(=O)CC[C@@H]4[C@H]3CC[C@@]21CC [LEVONORGESTREL]	Compound metabolized	–	Compound metabolized	Compound metabolized	–	–	Compound metabolized	Compound metabolized	Compound metabolized	Compound metabolized	Compound metabolized	Compound metabolized	Compound metabolized	Compound metabolized	Compound metabolized	Compound NOT metabolized	Compound metabolized	Compound metabolized	Compound metabolized	Compound metabolized
CCC(COC(=O)c1cc(OC)c(OC)c(OC)c1)(c1ccccc1)N(C)C.O=C(O)/C=C\C(=O)O (stereo not drawn)	Compound NOT metabolized	Compound NOT metabolized	Compound metabolized	Compound NOT metabolized	–	Compound NOT metabolized	Compound metabolized	Compound metabolized	Compound metabolized	Compound NOT metabolized	Compound NOT metabolized	Compound metabolized	Compound NOT metabolized	Compound metabolized	Compound metabolized	Compound NOT metabolized	Compound NOT metabolized	Compound metabolized	Compound NOT metabolized	Compound metabolized
O=C1CC[C@@H](C(=O)N2CSC[C@H]2C(=O)O)N1 [PIDOTIMOD] ([pGlu]-[Thz]-OH)	–	Compound metabolized	Compound NOT metabolized	Compound NOT metabolized	Compound metabolized	Compound metabolized	–	Compound NOT metabolized	–	–	–	Compound NOT metabolized	Compound metabolized	Compound NOT metabolized	Compound NOT metabolized	Compound NOT metabolized	Compound NOT metabolized	Compound NOT metabolized	Compound NOT metabolized	Compound NOT metabolized

Further lines, results first:

Bacterial Biotransformation [1]	Bacterial Biotransformation [2]	Bacterial Biotransformation [3]	Bacterial Biotransformation [4]	Bacterial Biotransformation [5]	Bacterial Biotransformation [6]	Bacterial Biotransformation [7]	Bacterial Biotransformation [8]	Bacterial Biotransformation [9]	Bacterial Biotransformation [10]	Bacterial Biotransformation [11]	Bacterial Biotransformation [12]	Bacterial Biotransformation [13]	Bacterial Biotransformation [14]	Bacterial Biotransformation [15]	Bacterial Biotransformation [16]	Bacterial Biotransformation [17]	Bacterial Biotransformation [18]	Bacterial Biotransformation [19]	Bacterial Biotransformation [20]	SMILES
Compound NOT metabolized	Compound NOT metabolized	Compound NOT metabolized	Compound NOT metabolized	Compound NOT metabolized	Compound NOT metabolized	–	–	–	–	–	–	Compound NOT metabolized	–	–	–	–	Compound NOT metabolized	–	–	CCCCCCOC(=O)/N=C(/N)c1ccc(NCc2nc3cc(C(=O)N(CCC(=O)OCC)c4ccccn4)ccc3n2C)cc1.CS(=O)(=O)O [DABIGATRAN ETEXILATE MESYLATE]
–	–	Compound NOT metabolized	Compound NOT metabolized	–	–	Compound metabolized	Compound metabolized	Compound metabolized	Compound NOT metabolized	Compound metabolized	Compound metabolized	Compound NOT metabolized	Compound metabolized	Compound metabolized	Compound NOT metabolized	Compound metabolized	Compound metabolized	–	–	c1ccc([C@H]2CN3CCSC3=N2)cc1 [LEVAMISOLE]
Compound NOT metabolized	Compound NOT metabolized	–	Compound NOT metabolized	Compound NOT metabolized	Compound NOT metabolized	Compound NOT metabolized	Compound NOT metabolized	Compound NOT metabolized	Compound NOT metabolized	Compound NOT metabolized	Compound NOT metabolized	Compound NOT metabolized	Compound NOT metabolized	Compound NOT metabolized	Compound NOT metabolized	Compound NOT metabolized	Compound NOT metabolized	Compound NOT metabolized	Compound NOT metabolized	O=C(NCc1ccccc1)OCCO [BURAMATE]
Compound metabolized	Compound metabolized	–	Compound metabolized	Compound metabolized	Compound metabolized	Compound metabolized	Compound metabolized	Compound metabolized	Compound metabolized	Compound metabolized	Compound metabolized	Compound metabolized	Compound metabolized	Compound metabolized	Compound metabolized	Compound metabolized	Compound metabolized	Compound metabolized	Compound metabolized	COc1c(C)c2c(c(O)c1C/C=C(\C)CCC(=O)OCCN1CCOCC1)C(=O)OC2 [MYCOPHENOLATE MOFETIL]

— ChEMBL document CHEMBL5724914, “Linking interpersonal differences in gut microbiota composition and drug biotransformation activity” (2024)
